Legend:
[1] = tested on: P(40), P(80), S(80) cell fractions of Methylosinus trichosporium (OB3b, NRRL B-11,196); experiment: Methane and propylene oxidation by cell fractions; format: biochemical; conditions: S(80) fraction, 30° C.
Experimental: (§1) Cells were washed twice with 25 mM potassium phosphate buffer, pH 7.0 containing 5 mM MgCl2. Cells were suspended in the same buffer. The cell suspensions at 4° C. were disintegrated by a single passage through a French Pressure cell (15,000 lb./in.^2) and centrifuged at 5000×g. for 15 min. to remove unbroken bacteria. The supernatant solution (crude extract) was then centrifuged at 40,000×g. for 30 min., yielding particulate P(40) and soluble S(40) fractions. The S(40) fraction was subsequently centrifuged at 80,000×g. for 60 min., yielding particulate P(80) and soluble S(80) fractions. The particulate fractions [P(40) and P(80)] were suspended in 25 mM potassium phosphate buffer, pH 7.0, containing 5 mM MgCl2 and homogenized at 4° C.
(§2) The oxidation of methane and propylene by particulate [(P)40 and (P)80] fractions and soluble [S(80)] fraction was measured at 30° C. by estimating the production of methanol and propylene oxide, respectively. The reaction mixtures contained in 1.0 ml: 150 mM potassium phosphate buffer, pH 7.0 containing 5 mM MgCl2, 0.6 ml; […] NADH, and cellular fraction.
(§3) Reaction mixtures were contained in 10 ml vials at 4° C. Vials were sealed with rubber caps. The gaseous phase in the vials was removed using vacuum and then was replaced with a gas mixture of methane or propylene and oxygen at a 1:1, v/v ratio. Oxidation of other gaseous n-alkanes and n-alkenes was examined as described above. For liquid substrates, 10 μl of substrate was used directly.
(§4) The products of epoxidation of n-alkenes and hydroxylation of n-alkanes were assayed by flame ionization gas chromatography using a stainless steel column (12'×1/8") packed with 10% Carbowax 20 M on 80/100 Chromosorb W and Porapak Q column. The column temperature was maintained isothermally at 120° C. The carrier gas flow rate was 30 ml/min. of helium. The various products were identified by retention time comparisons and co-chromatography with authentic standards.
(§5) Specific activities were expressed as μ moles of products formed per hour per mg. protein. Concentrations of protein in various fractions were determined by the method of Lowry et al., J. Biol. Chem. 193: 265-275 (1951).

[2] = target: T1, P(40), P(80), S(80) cell fractions of Methylococcus capsulatus (Texas, ATCC 19,069) (Methylococcus capsulatus, UniProt G1UBD1+Q603F1+Q607G3); experiment: Methane and propylene oxidation by cell fractions; format: biochemical
T1 sequence (G1UBD1 33-414): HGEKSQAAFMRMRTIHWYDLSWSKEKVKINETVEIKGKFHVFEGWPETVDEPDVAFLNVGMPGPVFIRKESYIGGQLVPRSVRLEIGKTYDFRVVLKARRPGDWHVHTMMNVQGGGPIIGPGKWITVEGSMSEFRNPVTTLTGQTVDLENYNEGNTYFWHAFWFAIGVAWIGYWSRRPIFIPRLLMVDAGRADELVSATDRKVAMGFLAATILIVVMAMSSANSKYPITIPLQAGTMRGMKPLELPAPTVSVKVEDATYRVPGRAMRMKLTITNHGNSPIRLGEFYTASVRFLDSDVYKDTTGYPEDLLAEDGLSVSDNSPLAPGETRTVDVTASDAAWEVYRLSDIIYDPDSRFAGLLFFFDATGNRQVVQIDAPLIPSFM
T1 sequence (Q607G3 1-247): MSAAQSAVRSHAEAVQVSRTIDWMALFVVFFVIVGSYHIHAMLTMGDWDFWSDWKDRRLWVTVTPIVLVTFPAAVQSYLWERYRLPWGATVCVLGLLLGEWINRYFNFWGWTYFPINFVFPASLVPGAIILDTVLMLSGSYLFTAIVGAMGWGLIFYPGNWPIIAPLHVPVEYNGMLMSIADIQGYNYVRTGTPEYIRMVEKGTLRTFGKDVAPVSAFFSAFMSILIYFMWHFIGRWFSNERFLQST
T1 sequence (Q603F1 1-260): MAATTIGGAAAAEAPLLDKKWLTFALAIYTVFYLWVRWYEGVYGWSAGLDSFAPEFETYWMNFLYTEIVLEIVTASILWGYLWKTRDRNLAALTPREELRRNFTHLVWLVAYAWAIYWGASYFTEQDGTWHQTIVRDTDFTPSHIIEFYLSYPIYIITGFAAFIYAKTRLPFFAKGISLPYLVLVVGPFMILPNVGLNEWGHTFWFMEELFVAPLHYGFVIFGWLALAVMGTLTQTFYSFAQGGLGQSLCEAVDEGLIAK
Experimental: as §1, §2, §3, §4, §5

[3] = target: T2, cell-free fractions of Methylococcus capsulatus (CRL M1, NRRL B-11,219) (Methylococcus capsulatus, UniProt G1UBD1+Q603F1+Q607G3); experiment: Epoxidation and hydroxylation activities in cell-free fractions; format: biochemical
T2 sequence (G1UBD1 33-414): T1 sequence (G1UBD1 33-414)
T2 sequence (Q607G3 1-247): T1 sequence (Q607G3 1-247)
T2 sequence (Q603F1 1-260): T1 sequence (Q603F1 1-260)
Experimental: Cells of methane-grown Methylococcus capsulatus (CRL M1, NRRL B-11,219) were obtained by the method of Example 1. […] However, when the cells were disrupted by passing twice through a French pressure cell (1000 Kg. pressure), both activities were found in the crude extract after 10,000×g. centrifugation. All of the activity in the crude extract was collected as a particulate fraction by further centrifugation of the crude extract at 40,000×g. for 90 min. at 4° C.

[4] = tested on: Methylosinus trichosporium OB3b (NRRL B-11,196); experiment: Methane hydroxylation and alkene epoxidation by washed cell suspensions; format: cell-based; conditions: for Propylene Oxide Formed: 3.6 mg cells; for Ability to hydroxylate methane or epoxidize C2 -C4 alkenes: methanol-grown washed cells
Experimental: The pH of the nutrient medium was adjusted to 7.0 by the addition of acid or base and 50 ml aliquots of the nutrient medium was charged into a plurality of 300 ml shake flasks. […] The isolates had been maintained on agar plates under an atmosphere of methane and air having a 1:1 v/v gas ratio which had been transferred every two weeks. The gaseous phase of the inoculated flasks was then replaced with a gas mixture comprised of methane and air having a ratio of 1:1 on a v/v basis. The inoculated flasks were sealed air tight and were incubated on a rotary shaker of orbital radius 2.5 cm at 250 rpm and at 30° C. for two days until the turbidity in the medium had developed.
The cells were harvested by centrifugation at 10,000 ×g at 4° C. for 30 minutes. The cell pellet was washed twice with a 0.15 M phosphate buffer at a pH of 7.0 (containing 0.002 M MgCl2). The washed cells were then suspended in a 0.15 M phosphate buffer at pH 7.0.
[…] The gaseous phase of the vials was removed with vacuum and then was replaced with a gas mixture of alkene and oxygen at a 1:1 v/v ratio. It was then incubated at 30° C. on a rotary shaker at 300 rpm. Samples of product (3 μl) were withdrawn periodically with a microsyringe and the products were analyzed by gas chromatography (ionization flame detector column).

[5] = Particulate fraction (10,000 g.-40,000 g.), 1 mg. protein
[6] = Supernatant fraction of 40,000 g., 2.5 mg. protein
[7] = methane-grown washed cells, 30° C.
[8] = Propylene + Methane + O2 (25:25:50 v/v), 15 minutes

For `C=CC` [Propylene], the “Propylene-Oxidizing Activity, S(80)” value [1] was 0 μmoles of product formed per h, the “% Distribution in Cell Fraction, Propylene-Epoxidizing Activity, P(40)” value ([2]; P(40) fraction) was 89% and the “Propylene-Oxidizing Activity, P(40)” value ([2]; P(40) fraction, 30° C.) was 2.6 μmoles of product formed per h. For the same compound, the “% Distribution in Cell Fraction, Propylene-Epoxidizing Activity, P(80)” value ([2]; P(80) fraction) was 11%, the “Propylene-Oxidizing Activity, P(80)” value ([2]; P(80) fraction, 30° C.) was 2.0 μmoles of product formed per h and the “% Distribution in Cell Fraction, Propylene-Epoxidizing Activity, S(80)” value ([2]; S(80) fraction) was 0%. The “Propylene-Oxidizing Activity, S(80)” value ([2]; S(80) fraction, 30° C.) was 0 μmoles of product formed per h, the “Oxidation Rate, Epoxidation of Propylene” value [3, 5] was 750 μmoles/30 min/assay and the “Oxidation Rate, Epoxidation of Propylene” value [3, 6] was 0 μmoles/30 min/assay. For the same compound, the “Propylene Oxide Formed” value ([4]; Propylene + Helium + O2 (25:25:50 v/v), 15 minutes) was 1.6 µmol, the “Conversion rate, propylene to propylene oxide” value [4, 7] was 3.6 μmole/hr/mg protein and the “Ability to hydroxylate methane or epoxidize C2 -C4 alkenes” value [4] was “did not possess the ability”.

`C` [Methane] was tested, and the “Methane-Oxidizing Activity, S(80)” value [1] was 0 μmoles of product formed per h, the “% Distribution in Cell Fraction, Methane-Hydroxylating Activity, P(40)” value ([2]; P(40) fraction) was 90% and the “Methane-Oxidizing Activity, P(40)” value ([2]; P(40) fraction, 30° C.) was 3.8 μmoles of product formed per h. For the same compound, the “% Distribution in Cell Fraction, Methane-Hydroxylating Activity, P(80)” value ([2]; P(80) fraction) was 10%, the “Methane-Oxidizing Activity, P(80)” value ([2]; P(80) fraction, 30° C.) was 3.9 μmoles of product formed per h and the “% Distribution in Cell Fraction, Methane-Hydroxylating Activity, S(80)” value ([2]; S(80) fraction) was 0%. For the same compound, the “Methane-Oxidizing Activity, S(80)” value ([2]; S(80) fraction, 30° C.) was 0 μmoles of product formed per h, the “Oxidation Rate, Hydroxylation of Methane” value [3, 5] was 500 μmoles/30 min/assay and the “Oxidation Rate, Hydroxylation of Methane” value [3, 6] was 0 μmoles/30 min/assay. For the same compound, the “Propylene Oxide Formed” value [4, 8] was 0.8 µmol, the “% Inhibition of propylene epoxidation” value [4, 8] was 50% and the “Conversion rate, methane hydroxylation (methane to methanol)” value [4, 7] was 1.5 μmole/hr/mg protein. For the same compound, the “Ability to hydroxylate methane or epoxidize C2 -C4 alkenes” value [4] was “did not possess the ability”.
